Values quoted from earlier work as cited in patent publication US20180280305A1 (Bayer HealthCare LLC, priority 2015, published 2018).

Conditions: pain conditions, non-prescription (OTC) setting

## COc1ccc2cc([C@H](C)C(=O)O)ccc2c1 [naproxen sodium]
  lowest effective dose: 220 mg
